According to article PMC3179935, “Gallus gallus NEU3 sialidase as model to study protein evolution mechanism based on rapid evolving loops” (BMC Biochemistry, 2011):

Biological target: T1, Mm NEU3 (Mm NEU3-HA) (Mus musculus, UniProt Q9JMH7)
T1 construct: HA tag, pcDNAI, transiently expressed in COS7, total cell lysate
T1 sequence (Q9JMH7 1-418): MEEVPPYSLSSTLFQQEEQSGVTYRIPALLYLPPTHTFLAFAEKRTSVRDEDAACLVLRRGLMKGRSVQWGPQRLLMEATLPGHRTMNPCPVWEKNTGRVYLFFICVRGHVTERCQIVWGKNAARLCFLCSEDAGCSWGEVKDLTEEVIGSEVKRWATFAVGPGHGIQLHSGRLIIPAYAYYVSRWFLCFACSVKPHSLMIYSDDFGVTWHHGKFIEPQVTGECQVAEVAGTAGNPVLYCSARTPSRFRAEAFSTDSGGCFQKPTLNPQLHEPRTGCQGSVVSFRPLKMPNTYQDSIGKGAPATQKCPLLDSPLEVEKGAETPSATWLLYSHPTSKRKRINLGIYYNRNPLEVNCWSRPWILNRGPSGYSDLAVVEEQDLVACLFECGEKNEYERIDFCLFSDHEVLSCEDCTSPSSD
Assay: sialidase activity in transfected COS7 lysate
Type: biochemical
Conditions: positive control; pH range 2.5-5.5; 37 °C

SMILES: CC(=O)N[C@H]1[C@H]([C@H](O)[C@H](O)CO)O[C@@](Oc2ccc3c(C)cc(=O)oc3c2)(C(=O)O)C[C@@H]1O [4-MU-NeuAc]
- sialidase activity in transfected COS7 lysate: pcDNAI-Mm NEU3-HA transfected cells were used as control
